The values that follow come from ChEMBL document CHEMBL1201862, “PubChem BioAssay data set” (2004).

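A five-concentration, 48-hour dose response in 96-well plates underlies each endpoint, interpolated linearly between surrounding concentrations. GI50 is the concentration that inhibits growth by half.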 Activity calls are given as the source filed them. Cut-off read from the data, not from the text of the source: active = GI50 up to about 1.1 µM and inactive = higher. Where only a bound is given, the exact number is not on record here.

Among the test systems are 786-0; A549; CCRF-CEM; COLO 205; EKVX; HCC 2998; HCT-116; HOP-62; HOP-92; HT-29; MCF7; MOLT-4; NCI-H226; NCI-H23; NCI-H460; OVCAR-8; RPMI-8226; SK-MEL-28; SK-OV-3; SNB-75.
Common to all, as to experiment: growth of human tumour cells (NCI), 48 h

Turning to `CC1=Nn2c(nc3sc4c(c3c2=O)CCCC4)SC1`, the GI50 in the assay on 786-0 is > 81.3 µM (inactive); in the assay on A549 it was > 83.6 µM (inactive); in the assay on CCRF-CEM, 35.3 µM (inactive); in the assay on COLO 205, > 87.9 µM (inactive); with EKVX, > 69.5 µM (inactive); in the assay on HCC 2998, 99.5 µM (inactive). The GI50 in the assay with HCT-116 is 82 µM (inactive); in the assay on HOP-62 it was > 100 µM (inactive); in the assay on HOP-92 it was 36.1 µM (inactive); in the assay with HT-29, > 88.7 µM (inactive); with MCF7, > 77.6 µM (inactive); in the assay on MOLT-4, 44.2 µM (inactive). The GI50 was > 100 µM (inactive) in the assay with NCI-H226; > 100 µM (inactive) with NCI-H23; 48.2 µM (inactive) in the assay on NCI-H460; > 100 µM (inactive) with OVCAR-8; 69.2 µM (inactive) in the assay with RPMI-8226; > 100 µM (inactive) in the assay on SK-MEL-28. Besides, the GI50 with SK-OV-3 was > 100 µM (inactive); in the assay on SNB-75, 64.9 µM (inactive).

As to `Cc1ccc(/N=C2\C(=N/c3ccc(C)cc3)N(c3ccc(C)cc3)C(=S)N2C(=O)c2ccccc2)cc1`, the GI50 with 786-0, in the assay on A549, in the assay on COLO 205, with EKVX, in the assay on HCC 2998 and with HOP-62 was > 100 µM (inactive) throughout. The GI50 in the assay on HOP-92, in the assay with HT-29, in the assay on MCF7, in the assay with MOLT-4, in the assay on NCI-H226 and with NCI-H23 was > 100 µM (inactive) in each case. In addition, the GI50 in the assay on NCI-H460 was > 100 µM (inactive); with OVCAR-8 it was > 10 µM (inactive); in the assay with RPMI-8226, > 100 µM (inactive); with SK-MEL-28 it was > 100 µM (inactive); in the assay on SK-OV-3 it was > 100 µM (inactive); in the assay on SNB-75, 17.5 µM (inactive).

As to `COC(=O)[C@H](C)NC(=O)[C@H](NS(=O)(=O)c1nc2ccccc2s1)c1ccccc1`, the GI50 is 29.2 µM (inactive) in the assay with 786-0; 34.4 µM (inactive) in the assay on CCRF-CEM; 13.1 µM (inactive) with COLO 205; 47.6 µM (inactive) in the assay on EKVX; 20.1 µM (inactive) with HCC 2998; 44.3 µM (inactive) in the assay on HCT-116. The GI50 with HOP-62 is 29.4 µM (inactive); in the assay on HOP-92, 12.6 µM (inactive); with HT-29, 39.4 µM (inactive); in the assay with MCF7, 34 µM (inactive); with MOLT-4, 29 µM (inactive); in the assay with NCI-H226 it was 14.5 µM (inactive). Besides, the GI50 is 36.3 µM (inactive) in the assay on NCI-H23; 24.9 µM (inactive) in the assay with NCI-H460; 16.7 µM (inactive) in the assay on OVCAR-8; 31 µM (inactive) with RPMI-8226; 17 µM (inactive) with SK-MEL-28; 33.2 µM (inactive) in the assay with SK-OV-3. Besides, in the assay on SNB-75, the GI50 was 18.6 µM (inactive).

Regarding `O=C(ON=C1c2ccccc2C(Br)C(Br)c2ccccc21)c1ccccc1` (stereo not drawn), the GI50 is 9.62 µM (inactive) in the assay on 786-0; 20.6 µM (inactive) in the assay with A549; 0.673 µM (active) in the assay with CCRF-CEM; 15.8 µM (inactive) in the assay with COLO 205; 23.1 µM (inactive) in the assay with EKVX; 21.8 µM (inactive) with HCC 2998. Besides, the GI50 in the assay on HCT-116 was 14.6 µM (inactive); in the assay with HOP-62 it was 12.7 µM (inactive); with HOP-92, 1.17 µM (inactive); in the assay with HT-29, 17.1 µM (inactive); in the assay on MCF7, 14.9 µM (inactive); in the assay on MOLT-4, 2.04 µM (inactive). The GI50 in the assay with NCI-H226 was 18 µM (inactive); in the assay with NCI-H23, 19.4 µM (inactive); in the assay on NCI-H460 it was 13.4 µM (inactive); in the assay with OVCAR-8 it was 9.18 µM (inactive); with RPMI-8226, 4.57 µM (inactive); with SK-MEL-28, 18.2 µM (inactive). Also, the GI50 in the assay with SK-OV-3 is 18.6 µM (inactive); in the assay on SNB-75, 21.6 µM (inactive).

With `Nc1ncnc2c1ncn2[C@@H]1O[C@H](COP(=O)(O)OP(=O)(O)OC[C@H]2O[C@@H](OCCCO)[C@H](O)[C@@H]2O)[C@@H](O)[C@H]1O`, the GI50 was > 100 µM (inactive) in the assay with 786-0; 87.7 µM (inactive) in the assay on A549; > 100 µM (inactive) with CCRF-CEM; > 100 µM (inactive) with COLO 205; > 100 µM (inactive) in the assay on EKVX; > 100 µM (inactive) with HCC 2998. Besides, the GI50 with HCT-116 is 61.1 µM (inactive); in the assay with HOP-62, > 100 µM (inactive); in the assay with HOP-92, > 100 µM (inactive); with HT-29, 69.8 µM (inactive); in the assay on MCF7 it was > 100 µM (inactive); in the assay with MOLT-4 it was > 100 µM (inactive). The GI50 was > 100 µM (inactive) with NCI-H226; > 100 µM (inactive) with NCI-H23; 34.6 µM (inactive) with NCI-H460; > 100 µM (inactive) in the assay with OVCAR-8; > 100 µM (inactive) in the assay with RPMI-8226; > 100 µM (inactive) in the assay on SK-MEL-28. The GI50 in the assay with SK-OV-3 and in the assay on SNB-75 was > 100 µM (inactive) in each case.

Take `Cc1ccc(SCC(CF)OC(C)n2cnc3c(Cl)nc(N)nc32)cc1` (stereo not drawn): the GI50 in the assay on 786-0 was 58.7 µM (inactive); with A549, 44.7 µM (inactive); in the assay with CCRF-CEM, 81.1 µM (inactive); in the assay with COLO 205, > 100 µM (inactive); with HCC 2998 it was > 100 µM (inactive); with HCT-116, 55.1 µM (inactive). Further, the GI50 with HOP-62 was > 100 µM (inactive); in the assay on HOP-92 it was 59.8 µM (inactive); with HT-29, > 100 µM (inactive); with MCF7, 27.2 µM (inactive); in the assay on MOLT-4, 25.8 µM (inactive); in the assay with NCI-H226 it was > 100 µM (inactive). In addition, the GI50 with NCI-H23 is 57.4 µM (inactive); in the assay on NCI-H460 it was 53 µM (inactive); in the assay with OVCAR-8, 69.7 µM (inactive); with RPMI-8226 it was > 100 µM (inactive); with SK-MEL-28, > 100 µM (inactive); in the assay with SK-OV-3 it was 37.2 µM (inactive). For the same compound, the GI50 in the assay with SNB-75 was > 100 µM (inactive).

Turning to `COc1cc2c(cc1OCCCC(=O)Nc1cc(C(=O)Nc3cc(C(=O)NCCCN(C)C)n(C)n3)n(C)n1)N=CC1CCCN1C2=O` (stereo not drawn), the GI50 was 16.3 µM (inactive) in the assay on 786-0; 36.1 µM (inactive) with A549; 12.5 µM (inactive) with CCRF-CEM; 13.5 µM (inactive) in the assay on COLO 205; 34 µM (inactive) in the assay with EKVX; 17.3 µM (inactive) in the assay on HCC 2998. The GI50 in the assay with HCT-116 is 16 µM (inactive); with HOP-62, 20.1 µM (inactive); in the assay on HOP-92, 19.1 µM (inactive); in the assay on HT-29, 17 µM (inactive); in the assay on MCF7, 12.6 µM (inactive); with MOLT-4, 4.79 µM (inactive). Moreover, the GI50 in the assay on NCI-H226 is 44.4 µM (inactive); in the assay on NCI-H23 it was 17.2 µM (inactive); in the assay with NCI-H460 it was 14.4 µM (inactive); in the assay with OVCAR-8, 22 µM (inactive); in the assay with RPMI-8226, 18.5 µM (inactive); in the assay with SK-MEL-28, 16.7 µM (inactive). The GI50 with SK-OV-3 was 57.3 µM (inactive).

For `O=C(c1ccc(/N=C/c2ccccc2O)cc1)c1ccc(/N=C/c2ccccc2O)cc1`, the GI50 with 786-0 is > 100 µM (inactive); with A549, > 100 µM (inactive); with COLO 205, 30.1 µM (inactive); in the assay with EKVX, > 100 µM (inactive); with HCC 2998, > 100 µM (inactive); with HCT-116, > 100 µM (inactive). The GI50 in the assay with HOP-62, in the assay with HOP-92, in the assay on HT-29, in the assay with MCF7, with MOLT-4 and in the assay on NCI-H226 was > 100 µM (inactive) each time. Also, the GI50 with NCI-H23, in the assay on NCI-H460, in the assay on RPMI-8226, with SK-MEL-28, with SK-OV-3 and in the assay with SNB-75 was > 100 µM (inactive) each time.

On to `CC(/C=N/N(C)C1=NCCCN1)=N/N(C)C1=NCCCN1`, for which the GI50 with 786-0, in the assay on A549, in the assay with CCRF-CEM, in the assay on COLO 205, in the assay on EKVX and in the assay with HCC 2998 was > 100 µM (inactive) each time. The GI50 with HCT-116, in the assay with HOP-62, with HOP-92, in the assay with HT-29, in the assay with MCF7 and with MOLT-4 was > 100 µM (inactive) in each case. Moreover, the GI50 in the assay with NCI-H226, with NCI-H23, with NCI-H460, with OVCAR-8, in the assay on RPMI-8226 and with SK-MEL-28 was > 100 µM (inactive) throughout. Besides, the GI50 in the assay with SK-OV-3 and in the assay on SNB-75 was > 100 µM (inactive) throughout.

Take `CC(=O)OCC12C(OC(C)=O)C(=O)C3C(OC(C)=O)C14OC3(C)COC(=O)c1cccnc1C(C)C(C)C(=O)OC(C(OC(C)=O)C2OC(C)=O)C4(C)O` (stereo not drawn): the GI50 in the assay with 786-0, with A549, in the assay with CCRF-CEM, with COLO 205, in the assay on EKVX and in the assay with HCC 2998 was > 100 µM (inactive) in each case. In addition, the GI50 with HCT-116 is > 100 µM (inactive); with HOP-62, > 100 µM (inactive); with HOP-92 it was > 100 µM (inactive); in the assay with HT-29 it was > 100 µM (inactive); with MCF7 it was > 100 µM (inactive); in the assay on MOLT-4, 52.2 µM (inactive). For the same compound, the GI50 with NCI-H226, with NCI-H23, with NCI-H460, in the assay with OVCAR-8, with RPMI-8226 and in the assay with SK-MEL-28 was > 100 µM (inactive) in each case. Besides, the GI50 in the assay on SK-OV-3 and in the assay with SNB-75 was > 100 µM (inactive) throughout.
